This is an account of results in patent US20250066341A1 (CHIESI FARMACEUTICI S.P.A., priority 2021, published 2025).

Molecules are shown by their SMILES.

T1 sequence (Q92633 whole entry): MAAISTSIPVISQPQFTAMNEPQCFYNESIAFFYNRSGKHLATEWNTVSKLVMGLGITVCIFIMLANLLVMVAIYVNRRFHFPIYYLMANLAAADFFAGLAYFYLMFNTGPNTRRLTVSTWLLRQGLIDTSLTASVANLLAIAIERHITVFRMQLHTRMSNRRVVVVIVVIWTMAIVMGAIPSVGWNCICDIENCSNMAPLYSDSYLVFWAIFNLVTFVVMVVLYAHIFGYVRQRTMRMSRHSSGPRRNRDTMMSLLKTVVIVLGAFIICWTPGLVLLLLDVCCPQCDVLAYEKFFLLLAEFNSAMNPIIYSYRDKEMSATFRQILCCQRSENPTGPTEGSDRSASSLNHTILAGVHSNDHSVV

This experiment concerns the target T1, human recombinant LPA1 expressed in CHO cells (Homo sapiens, UniProt Q92633).
T1 construct: expressed in transfected cells; host or cells: CHO cells (CHO-hLPA1 cell line)
In words: FLIPR calcium mobilization assay, LPA1 antagonism in CHO-hLPA1 cells. The format is cell-based. As to conditions: inhibition of LPA EC80 Ca2+ response, 30 min pre-incubation, expressed as range of activity. The method, then:
The effectiveness of compounds of the present invention as LPA1 antagonist can be determined at the human recombinant LPA1 expressed in CHO cells, using a FLIPR assay in 384 well format.
CHO-hLPA1 cell lines are cultured in a humidified incubator at 5% C02 in DMEM/F-12 (1:1) MIXTURE with 2 mM Glutamax, supplemented with 10% of Foetal Bovine Serum, 1 mM Sodium Pyruvate, 11 mM Hepes and 1× Penicillin/Streptomycin. […] Serial dilutions (1:3 or 1:4, 11 points CRC) of compounds are performed in 100% DMSO at 200× the final concentration. […] The final concentration of DMSO in the assay will be 0.5% in each well. Medium is removed by aspiration and cells are then incubated with 30 μl of a loading solution containing 5 μM of the cytoplasmic Ca2+ indicator Cal-520 AM in Assay Buffer containing 2.5 mM probenecid for 30 min at 37° C. incubator (cell loading). The loaded cell plates are transferred into the FLIPR instrument and calcium responses are monitored during the on-line addition protocols. For testing of compounds, after the cell loading, 10 μl/well of 4× antagonists' solution was added onto the cells. After 30 min pre-incubation (at 37° C.), 10 μl/well of 5× concentrated LPA EC80 was added and Ca2+ mobilization responses was followed during the on-line addition protocol. Intracellular peak fluorescence values subtracted by baseline fluorescence are exported and analysed to determine IC50 values, respectively. The calcium response is expressed as percentage of the maximal inhibition of the EC80 agonist response.
The raw data (peak height expressed as relative fluorescence units) are normalized and transformed into “percent of inhibition”. Curve fitting and pIC50 (−LogIC50) estimations are carried out using a four-parameter logistic model using XLfit Software.
On the technique in general: A change in cytosolic calcium serves as a functional read-out for many receptors and channels.
The IC50 is the concentration that gives 50% inhibition. Turning to `Cc1nc(-c2cnn(C)c2COC(=O)N(C)CCC(C)C)ccc1NC(=O)[C@H]1CCCC[C@@H]1C(=O)O` [Compound 21, (1S,2S)-2-((6-(5-(((isopentyl(methyl)carbamoyl)oxy)methyl)-1-methyl-1H-pyrazol-4-yl)-2-methylpyridin-3-yl)carbamoyl)cyclohexane-1-carboxylic acid], the IC50 is 250 to 600 nM.
For `Cc1nc(-c2onc(C)c2NS(=O)(=O)CCc2ccccc2)ccc1OC[C@H]1CCCC[C@@H]1C(=O)O` [Compound 57, (1S,2S)-2-(((2-methyl-6-(3-methyl-4-((2-phenylethyl)sulfonamido)isoxazol-5-yl)pyridin-3-yl)oxy)methyl)cyclohexane-1-carboxylic acid], the half-inhibitory concentration (IC50) is below 50 nM.
Turning to `Cc1nc(-c2onc(C)c2CNc2nccc(-c3ccco3)n2)ccc1NC(=O)[C@H]1CCCC[C@@H]1C(=O)O` [Compound 41, (1S,2S)-2-((6-(4-(((4-(furan-2-yl)pyrimidin-2-yl)amino)methyl)-3-methylisoxazol-5-yl)-2-methylpyridin-3-yl)carbamoyl)cyclohexane-1-carboxylic acid], the IC50 was below 50 nM.
Take `Cc1nc(-c2nnn(C)c2CNC(=O)O[C@H](C)c2ccccc2Cl)ccc1NC(=O)[C@H]1CCCC[C@@H]1C(=O)O` [Compound 42, (1S,2S)-2-((6-(5-(((((R)-1-(2-chlorophenyl)ethoxy)carbonyl)amino)methyl)-1-methyl-1H-1,2,3-triazol-4-yl)-2-methylpyridin-3-yl)carbamoyl)cyclohexane-1-carboxylic acid]: the half-inhibitory concentration (IC50) was 250 to 600 nM.
Turning to `Cc1noc(-c2ccc(OC[C@H]3CCCC[C@@H]3C(=O)O)cn2)c1Nc1cncc(OCC(F)(F)F)n1` [Compound 49, (1S,2S)-2-(((6-(3-methyl-4-((6-(2,2,2-trifluoroethoxy)pyrazin-2-yl)amino)isoxazol-5-yl)pyridin-3-yl)oxy)methyl)cyclohexane-1-carboxylic acid], the IC50 is below 50 nM.
On to `CC(C)Oc1cncc(Nc2c(-c3ccc(NC(=O)C4CCCCC4C(=O)O)cc3)nnn2C)n1` (racemic) [Compound 43, 2-((4-(5-((6-isopropoxypyrazin-2-yl)amino)-1-methyl-1H-1,2,3-triazol-4-yl)phenyl)carbamoyl)cyclohexane-1-carboxylic acid], for which the 50% inhibitory concentration (IC50) lay in the range of 50 to 250 nM.
Then `Cc1nc(-c2onc(C)c2CNc2nccc(-c3cccnc3)n2)ccc1NC(=O)[C@H]1CCCC[C@@H]1C(=O)O` [Compound 38, (1S,2S)-2-((2-methyl-6-(3-methyl-4-(((4-(pyridin-3-yl)pyrimidin-2-yl)amino)methyl)isoxazol-5-yl)pyridin-3-yl)carbamoyl)cyclohexane-1-carboxylic acid], with below 50 nM; and `Cc1nc(-c2nnn(C)c2CNc2nccc(-c3cnccn3)n2)ccc1OC[C@H]1CCCC[C@@H]1C(=O)O` [Compound 65, (1S,2S)-2-(((2-methyl-6-(1-methyl-5-(((4-(pyrazin-2-yl)pyrimidin-2-yl)amino)methyl)-1H-1,2,3-triazol-4-yl)pyridin-3-yl)oxy)methyl)cyclohexane-1-carboxylic acid], with below 50 nM; and `Cc1nc(-c2cnn(C)c2CNc2nccc(C3CCCCC3)n2)ccc1NC(=O)[C@H]1CCCC[C@@H]1C(=O)O` [Compound 18], with below 50 nM.
With `Cc1noc(-c2ccc(OC[C@H]3CCCC[C@@H]3C(=O)O)cn2)c1NC(=O)O[C@H](C)c1ccccc1Cl` [Compound 78, (1S,2S)-2-(((6-(4-((((R)-1-(2-chlorophenyl)ethoxy)carbonyl)amino)-3-methylisoxazol-5-yl)pyridin-3-yl)oxy)methyl)cyclohexane-1-carboxylic acid], the half-maximal inhibitory concentration (IC50) was below 50 nM.
`CCOc1cncc(Nc2c(C)noc2-c2ccc(OC[C@H]3CCCC[C@@H]3C(=O)O)cn2)n1` [Compound 47, (1S,2S)-2-(((6-(4-((6-ethoxypyrazin-2-yl)amino)-3-methylisoxazol-5-yl)pyridin-3-yl)oxy)methyl)cyclohexane-1-carboxylic acid]: the half-maximal inhibitory concentration (IC50) was below 50 nM.
In the case of `Cc1nc(-c2onc(C)c2NS(=O)(=O)CCc2ccc(Cl)cc2)ccc1NC(=O)[C@H]1CCCC[C@@H]1C(=O)O` [Compound 28, (1S,2S)-2-((6-(4-((2-(4-chlorophenyl)ethyl)sulfonamido)-3-methylisoxazol-5-yl)-2-methylpyridin-3-yl)carbamoyl)cyclohexane-1-carboxylic acid], the concentration for half-maximal inhibition (IC50) is below 50 nM.
On to `Cc1nc(-c2onc(C)c2COC(=O)N(C)C2CCCC2)ccc1OC[C@H]1CCCC[C@@H]1C(=O)O` [Compound 74, (1S,2S)-2-(((6-(4-(((cyclopentyl(methyl)carbamoyl)oxy)methyl)-3-methylisoxazol-5-yl)-2-methylpyridin-3-yl)oxy)methyl)cyclohexane-1-carboxylic acid], for which the IC50 is below 50 nM.
Then `Cc1nc(-c2onc(C)c2NS(=O)(=O)CCOc2ccc(F)cc2)ccc1NC(=O)[C@H]1CCCC[C@@H]1C(=O)O` [Compound 25, (1S,2S)-2-((6-(4-((2-(4-fluorophenoxy)ethyl)sulfonamido)-3-methylisoxazol-5-yl)-2-methylpyridin-3-yl)carbamoyl)cyclohexane-1-carboxylic acid], with 50 to 250 nM; and `Cc1noc(-c2ccc(OCC3CCCCC3C(=O)O)cn2)c1NC(=O)O[C@H](C)c1ccccc1Cl` (stereo partly drawn) [Compound 79, 2-(((6-(4-((((R)-1-(2-chlorophenyl)ethoxy)carbonyl)amino)-3-methylisoxazol-5-yl)pyridin-3-yl)oxy)methyl)cyclohexane-1-carboxylic acid], with below 50 nM.
With `Cc1nc(-c2onc(C)c2NS(=O)(=O)CC(C)c2ccccc2)ccc1NC(=O)[C@H]1CCCC[C@@H]1C(=O)O` (mixture of isomers) [Compound 29, rac-(1S,2S)-2-((2-methyl-6-(3-methyl-4-((2-phenylpropyl)sulfonamido)isoxazol-5-yl)pyridin-3-yl)carbamoyl)cyclohexane-1-carboxylic acid], the IC50 was below 50 nM.
Turning to `Cc1nc(-c2nnn(C)c2CNc2cncc(OC(C)C)n2)ccc1OC[C@H]1CCCC[C@@H]1C(=O)O` [Compound 73], the IC50 lay in the range of 50 to 250 nM.
As for `Cc1noc(-c2ccc(OCC3CCCCC3C(=O)O)cc2)c1NC(=O)O[C@H](C)c1ccccc1Cl` (stereo partly drawn) [Compound 77, 2-((4-(4-((((R)-1-(2-chlorophenyl)ethoxy)carbonyl)amino)-3-methylisoxazol-5-yl)phenoxy)methyl)cyclohexane-1-carboxylic acid], the IC50 was below 50 nM.
As for `COc1cncc(Nc2c(C)noc2-c2ccc(OC[C@H]3CCCC[C@@H]3C(=O)O)c(C)n2)n1` [Compound 53, (1S,2S)-2-(((6-(4-((6-methoxypyrazin-2-yl)amino)-3-methylisoxazol-5-yl)-2-methylpyridin-3-yl)oxy)methyl)cyclohexane-1-carboxylic acid], the IC50 was 50 to 250 nM.
`Cc1nc(-c2nnn(C)c2CNc2nccc(C3CCCCC3)n2)ccc1NC(=O)[C@H]1CCCC[C@@H]1C(=O)O` [Compound 44, (1S,2S)-2-((6-(5-(((4-cyclohexylpyrimidin-2-yl)amino)methyl)-1-methyl-1H-1,2,3-triazol-4-yl)-2-methylpyridin-3-yl)carbamoyl)cyclohexane-1-carboxylic acid]: the IC50 was below 50 nM.
